# Measured values from US11485701B2, “Insect repellent compounds and compositions, and methods thereof” (Iowa State University Research Foundation, Inc., priority 2016, dated 2022).
# Assays:
# Format in all cases: in vivo
# [1] = test system: Northern house mosquitoes (Culex pipiens); assay: Contact irritancy assay (percent escape from treated chamber); details: organza netting treated with 0.5% solution; 10 min; FIG. 14
# Protocol: (§1) Northern house mosquitoes (Culex pipiens), a primary carrier of West Nile virus in eastern North America, were obtained from an established colony in the Medical Entomology Laboratory in the Department of Entomology at Iowa State University of Science and Technology, Ames Iowa. Mosquito rearing was performed by established protocols that are maintained by the Medical Entomology Laboratory. Repellency bioassays were performed with adult female mosquitoes that were 5-7 days post-emergent. […] Mosquitoes, prior to testing, were held at 27° C., 80% relative humidity, and on a 16:8 hr light:dark photoperiod.
# Organza were cut to approximately 11.5 cm×8 cm to wrap around the inside of the contact irritancy chamber. This piece of organza was treated with 1.5 mL of 0.5% or 0.05% solution of test compound in acetone. This organza was allowed to air-dry for 15 minutes before introducing them into the chamber. Organza sheets were draped around the inside wall of the metallic chamber and fastened to the walls of the chamber with small magnets. […] After ten minutes, the butterfly valve was once again closed and the number of mosquitoes was counted in the clear “counting” chamber. […]
# [2] = test system: Northern house mosquitoes (Culex pipiens); assay: Short-term spatial repellency, static air repellency chamber; details: for pest or weed control at 0.5 %: Culex pipiens, filter paper, 1 mL of 0.5% solution in acetone, air-dried 15 min
# In short: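 Adult females 5-7 days post-emergence, ~20 per chamber, exposed in a 9×60 cm glass tube to filter paper treated with compound in acetone, the other end untreated. Distribution scored at 15-150 min as % spatial repellency; acetone controls, four replicates.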
# [3] = test system: Northern house mosquitoes (Culex pipiens); assay: Long-term spatial repellency, static air repellency chamber, filter papers air-dried 5 hours; details: Culex pipiens, 1 mL of 0.5% solution in acetone, air-dried 5 hours
# Protocol: as §1
# Repellency bioassays were performed using a static air repellency chamber, which has been described in various publications by the Pesticide Toxicology Laboratory at Iowa State University of Science and Technology, Ames, Iowa Briefly, a 9-cm×60-cm glass tube was used to monitor the distribution of mosquitoes at 15 min, 30 min, 60 min, 90 min, 120 min, and 150 min after introducing mosquitoes into the static air repellency chamber. Treated filter papers were treated with 1 mL of 0.5% solution in acetone of the terpenoid analogs created in the lab and were exposed to ambient air for 5 hours before they were introduced into the spatial chamber for testing. This is a slight modification of the method described in Example 2, so as to evaluate the residual repellent character of these compounds on a treated surface after 5 hours. One end of the spatial chamber contained a treated filter paper, whereas the other (untreated) end of the spatial chamber was not treated with compound. Controls contained filter papers treated with acetone, the solvent used to make the 0.5% solutions. Each end of the repellency chamber was secured with a 100-mm Petri dish using celluloid tape. After securing the petri dishes with corresponding treated or untreated filter papers to the spatial chamber, mosquitoes were anesthetized with carbon dioxide, and approximately 20 female mosquitoes were placed into each repellency chamber for one replicate. The opening of the spatial repellency chamber was secured with celluloid tape to prevent their escape. Chambers were oriented in opposite directions from the previous replicate to account for any directional effect. Four replicates were performed for data analysis for both the control and treatment groups.
# Data for spatial repellency, the percentage repellency, is reported at each of the respective time points in the figures and tables mentioned below in this disclosure. The percentage spatial repellency is the examination of the distribution of mosquitoes and is calculated using the following equation: […]
# [4] = 0.25 h, 15 min after introduction, read-out: Short-term Percentage repellency 15 min
# [5] = 1.5 h, 90 min, read-out: Short-term Percentage repellency 90 min
# [6] = 2.5 h, 150 min, read-out: Short-term Percentage repellency 150 min
# [7] = 0.25 h, 15 min, read-out: Long-term Percentage repellency 15 min
# [8] = 1.5 h, 90 min, read-out: Long-term Percentage repellency 90 min
# [9] = 2.5 h, 150 min, read-out: Long-term Percentage repellency 150 min
SMILES,"Contact irritancy, percentage escape [1]","pest or weed control at 0.5 % [2, 4]","pest or weed control at 0.5 % [2, 5]","pest or weed control at 0.5 % [2, 6]","Short-term repellency at low concentration, in words ([2]; filter paper treated with 0.1%, FIG. 6)","pest or weed control at 0.5 % [3, 7]","pest or weed control at 0.5 % [3, 8]","pest or weed control at 0.5 % [3, 9]"
"CC(C)=CCCC(C)CCOC(=O)C1CC1 (stereo not drawn) [Compound 1035A, citronellyl cyclopropanecarboxylate]",80%,22.5%,92.5%,90%,significant levels of repellency,70%,80%,62.5%
"CC1CCC(C(C)(C)O)C(O)C1 (stereo not drawn) [p-menthane-3,8-diol, reference compound]",approximately 65%,12.5%,12.5%,20%,,7.5%,5%,5%
